Numbered stars: 1 amine (or outer) side, 2 acyl side, 3 side chain; on linkers, the order of the positions; unused ones are H or OH. Bridge positions count the residues as written; N and C are the ends. Side chains are listed from the residue outwards. Peptide text beside a SMILES is read from it. * marks the point of attachment. C20 diacid = O=C(O)CCCCCCCCCCCCCCCCCCC(=O)*; γGlu = O=C(O)[C@H](CCC(=O)[*:2])N[*:1]
Assays:
[1] = target: T1, human amylin 3(a) receptor (human calcitonin receptor + RAMP-3) in BHK570 cells (Homo sapiens, UniProt O60896+P30988); test: ASSAY (II)a functional assay, human amylin receptor (CRE luciferase); format: cell-based; settings: for EC50: human amylin receptor functional potency, assay (II), read-out: hAmylin-R funct. EC50
T1 construct: expressed in transfected cells
Procedure, shortened: (§1)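 Readout is luminescence from a cAMP-responsive CRE-luc reporter, developed with LucLite for 30 min at room temperature. Cells were treated for 3 h at 37 °C in 10% FBS/DMEM buffered with 10 mM Hepes (pH 7.4).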

[2] = target: T2, human calcitonin (a) receptor in BHK570 cells (Homo sapiens, UniProt P30988); test: ASSAY (II)a functional assay, human calcitonin receptor (CRE luciferase); format: cell-based; settings: read-out: hCTR funct. EC50
T2 construct: expressed in transfected cells
T2 sequence (P30988 25-474): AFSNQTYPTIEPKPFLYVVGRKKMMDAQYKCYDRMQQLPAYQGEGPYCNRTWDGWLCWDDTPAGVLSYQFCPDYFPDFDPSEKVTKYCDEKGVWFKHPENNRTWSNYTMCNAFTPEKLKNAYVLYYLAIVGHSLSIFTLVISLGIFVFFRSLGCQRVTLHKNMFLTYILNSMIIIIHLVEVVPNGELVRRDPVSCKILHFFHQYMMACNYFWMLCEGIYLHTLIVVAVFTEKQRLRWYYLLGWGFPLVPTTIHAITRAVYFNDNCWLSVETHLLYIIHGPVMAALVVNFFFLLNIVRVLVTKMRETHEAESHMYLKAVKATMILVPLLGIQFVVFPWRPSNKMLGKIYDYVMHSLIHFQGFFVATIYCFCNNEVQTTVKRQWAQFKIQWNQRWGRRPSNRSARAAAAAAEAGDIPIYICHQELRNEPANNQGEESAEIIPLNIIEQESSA
Procedure, shortened: as §1

[3] = target: T3, human amylin receptor (membranes from Amylin 3(a)/CRE-luc cells) (Homo sapiens, UniProt O60896+P30988); test: ASSAY (V) binding to the human amylin receptor (SPA, 125I-rat amylin); settings: for IC50: Table 4, read-out: hAmylin-R bind IC50;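 for all read-outs here: competition binding of cell membranes (35 ng/µL) mixed with SPA beads in 384-well plates at 40 µL total volume, read by scintillation counting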
T3 construct: expressed in transfected cells
T3 sequence (P30988 25-474): T2 sequence (P30988 25-474)
T3 sequence (O60896 24-148 partner): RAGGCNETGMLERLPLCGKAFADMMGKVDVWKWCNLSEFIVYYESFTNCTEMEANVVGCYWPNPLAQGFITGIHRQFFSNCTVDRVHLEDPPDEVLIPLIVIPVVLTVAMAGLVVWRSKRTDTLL

[4] = target: T4, rat amylin receptor (rat calcitonin receptor + rat RAMP 3) (Rattus norvegicus, UniProt P32214+Q9JJ73); test: ASSAY (VI) binding to the rat amylin receptor; settings: for IC50: binding to rat amylin receptor, read-out: rAmylin-R bind IC50
T4 construct: expressed in transfected cells; host or cells: BHK tk'ts 13 (transient, FuGENE 6), membranes
T4 sequence (P32214 25-479 isoform P32214-2 limits assumed): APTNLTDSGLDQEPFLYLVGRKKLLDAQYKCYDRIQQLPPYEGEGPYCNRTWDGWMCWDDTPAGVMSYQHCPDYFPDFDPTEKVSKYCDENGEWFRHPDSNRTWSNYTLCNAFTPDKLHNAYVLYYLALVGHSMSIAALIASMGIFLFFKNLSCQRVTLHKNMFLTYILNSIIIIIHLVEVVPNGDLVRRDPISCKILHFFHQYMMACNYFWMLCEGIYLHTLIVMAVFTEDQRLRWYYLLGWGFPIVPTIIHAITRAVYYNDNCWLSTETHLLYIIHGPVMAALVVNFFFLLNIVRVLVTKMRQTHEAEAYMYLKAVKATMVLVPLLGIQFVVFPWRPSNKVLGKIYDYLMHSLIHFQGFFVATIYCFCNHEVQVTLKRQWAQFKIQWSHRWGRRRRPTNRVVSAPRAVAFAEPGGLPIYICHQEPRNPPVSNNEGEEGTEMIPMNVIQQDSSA
T4 sequence (Q9JJ73 23-147 partner): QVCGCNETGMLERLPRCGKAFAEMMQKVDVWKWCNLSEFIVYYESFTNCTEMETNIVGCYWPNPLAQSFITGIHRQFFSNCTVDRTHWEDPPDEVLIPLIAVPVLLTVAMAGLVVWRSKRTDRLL
Procedure, shortened: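 Membranes for this rat amylin receptor binding assay came from BHK tk′ts 13 cells. The cells were transiently transfected with rat calcitonin receptor using the FuGENE® 6 reagent from Roche, as the manufacturer recommends. The cells were collected approximately 48 hours after transfection, and membranes were then prepared.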

[5] = target: T5, human calcitonin receptor (Homo sapiens, UniProt P30988); test: ASSAY (VII) binding to the human calcitonin receptor (SPA, 125I-Calcitonin); settings: read-out: hCTR bind IC50;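 note: cell membranes (35 ng/µL) combined with SPA beads in 40 µL of pH 7.4 Hepes buffer, 384-well format, signal counted on a TopCounter instrument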
T5 construct: expressed in transfected cells
T5 sequence (P30988 25-474): T2 sequence (P30988 25-474)
Procedure: Membranes were prepared in the following way; the cells were rinsed with PBS and incubated with Versene for approximately 5 min before harvesting. The cells were flushed with PBS and the cell-suspension was centrifuged for 5 min at 1000 rpm. […] The resulting pellet was resuspended in buffer 2 and protein concentration was measured (BCA protein Assay, Pierce). The homogenate was kept cold during the whole procedure. The membranes were kept at −80° C. until use. Assay was performed in a 384 well Optiplate (PerkinElmer) in a total volume of 40 ul. Membranes were mixed with SPA beads. Final concentration of membranes 35 ng/μL final and Final concentration of SPA beads was 0.05 mg/well. Test-compounds were dissolved in DMSO and further diluted in assay buffer (50 mM Hepes, pH 7.4, 1 mM CaCl2, 5 mM MgCl2, 0.1% OA and 0.02% Tween20). […] Samples were analyzed on TopCounter™ (Packard).

rat calcitonin receptor = target: T6, rat calcitonin receptor (Rattus norvegicus, UniProt P32214); test: ASSAY (VIII) binding to the rat calcitonin receptor; settings: Table 7, read-out: rCTR bind IC50
T6 construct: expressed in transfected cells; host or cells: BHK tk'ts 13 (transient, FuGENE 6), membranes
T6 sequence (P32214 25-479 isoform P32214-2 limits assumed): T4 sequence (P32214 25-479 isoform P32214-2 limits assumed)
Procedure, shortened: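 Cell membranes for binding came from BHK tk′ts 13 cells harvested approximately 48 hours after transient transfection with the rat receptor.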

[6] = hCTR funct. EC50 / hAmylin-R funct. EC50
[7] = hCTR funct. EC50 over hAmylin-R funct. EC50
[8] = human functional selectivity: hCTR funct. EC50 / hAmylin-R funct. EC50
[9] = Table 5, selectivity, hCTR bind IC50 / hAmylin-R bind IC50
[10] = Table 7, human binding selectivity, included for comparison
[11] = Table 7a (preferred compounds), human binding selectivity, included for comparison
[12] = Table 7, rat binding selectivity, rCTR IC50 / rAmylin-R IC50
[13] = Table 7a (preferred compounds), rat binding selectivity, rCTR IC50 / rAmylin-R IC50
[14] = hCTR funct. EC50 divided by hAmylin-R funct. EC50

Row | SMILES | Ratio hCT/hAmylin funct. [1, 6] | Ratio hCT/hAmylin funct. [1, 7] | EC50 [1] [nM] | Ratio hCT/hAmylin funct. [1, 8] | EC50 [2] [nM] | IC50 [3] [nM] | Ratio hCT/hAmylin binding [3, 9] | Ratio hCT/hAmylin binding [3, 10] | Ratio hCT/hAmylin binding [3, 11] | IC50 ([4]; Table 7) [nM] | Ratio rCT/rAmylin binding [4, 12] | Ratio rCT/rAmylin binding [4, 13] | IC50 [5] [nM] | IC50 (rat calcitonin receptor) [nM] | Ratio hCT/hAmylin funct. [1, 14] | Ratio hCT/hAmylin binding ([3]; Table 5a, selectivity, hCTR bind IC50 / hAmylin-R bind IC50) | Ratio hCT/hAmylin binding ([3]; Table 5b, selectivity, hCTR bind IC50 / hAmylin-R bind IC50) | Ratio hCT/hAmylin binding ([3]; Table 5c, selectivity, hCTR bind IC50 / hAmylin-R bind IC50) | Ratio hCT/hAmylin binding ([3]; ratio of human calcitonin receptor binding IC50 to human amylin receptor binding IC50) | Ratio rCT/rAmylin binding ([4]; ratio of rCTR bind IC50 to rAmylin-R bind IC50)
1 | CC[C@H](C)[C@H](NC(=O)[C@H](C)NC(=O)CNC(=O)[C@H](Cc1ccccc1)NC(=O)[C@H](CC(N)=O)NC(=O)[C@@H]1CCCN1C(=O)[C@H](CO)NC(=O)[C@H](CO)NC(=O)[C@H](Cc1c[nH]cn1)NC(=O)[C@H](CCCNC(=N)N)NC(=O)[C@H](CC(C)C)NC(=O)[C@H](Cc1ccccc1)NC(=O)[C@H](CCC(=O)O)NC(=O)[C@H](C)NC(=O)[C@H](CC(C)C)NC(=O)[C@H](CCCNC(=N)N)NC(=O)[C@H](CCC(N)=O)NC(=O)[C@@H](NC(=O)[C@H](C)NC(=O)[C@@H]1CSSC[C@H](NC(=O)[C@H](CCCCN)NC(=O)CC[C@H](NC(=O)CCCCCCCCCCCCCCCCCCC(=O)O)C(=O)O)C(=O)N[C@@H](CC(N)=O)C(=O)N[C@@H]([C@@H](C)O)C(=O)N[C@@H](C)C(=O)N[C@@H]([C@@H](C)O)C(=O)N1)[C@@H](C)O)C(=O)N[C@@H](CC(C)C)C(=O)N1CCC[C@H]1C(=O)N[C@@H](CO)C(=O)N[C@H](C(=O)N[C@@H](CC(N)=O)C(=O)N[C@H](C(=O)NCC(=O)N[C@@H](CO)C(=O)N[C@@H](CCC(=O)O)C(=O)N[C@H](C(=O)N[C@@H](Cc1ccc(O)cc1)C(N)=O)[C@@H](C)O)C(C)C)[C@@H](C)O [Example 33] ({C20 diacid-γGlu}-KCNTATCATQRLAEFLRHSSPNFGAILPSTNVGSETY-NH2; disulfide 2-7) | 2.2 | 2.2 | 0.243 | 2.2 | 0.528 | 0.915 | 3.9 | 3.9 | 3.9 | 2.29 | 12.6 | 12.6 | 3.61 | 28.9 |  |  |  |  |  | 
2 | CC[C@H](C)[C@H](NC(=O)[C@H](C)NC(=O)CNC(=O)[C@H](Cc1ccccc1)NC(=O)[C@H](CC(N)=O)NC(=O)[C@@H]1CCCN1C(=O)[C@H](CO)NC(=O)[C@H](CO)NC(=O)[C@H](Cc1c[nH]cn1)NC(=O)[C@H](CCCNC(=N)N)NC(=O)[C@H](CC(C)C)NC(=O)[C@H](Cc1ccccc1)NC(=O)[C@H](CC(N)=O)NC(=O)[C@H](C)NC(=O)[C@H](CC(C)C)NC(=O)[C@H](CCCNC(=N)N)NC(=O)[C@H](CCC(N)=O)NC(=O)[C@@H](NC(=O)[C@H](C)NC(=O)[C@@H]1CSSC[C@H](NC(=O)[C@@H](N)CCCCNC(=O)CC[C@H](NC(=O)CCCCCCCCCCCCCCCCCCC(=O)O)C(=O)O)C(=O)N[C@@H](CC(N)=O)C(=O)N[C@@H]([C@@H](C)O)C(=O)N[C@@H](C)C(=O)N[C@@H]([C@@H](C)O)C(=O)N1)[C@@H](C)O)C(=O)N1CCC[C@H]1C(=O)N[C@@H](CO)C(=O)N[C@@H](CO)C(=O)N[C@H](C(=O)N[C@@H](CC(N)=O)C(=O)N[C@H](C(=O)NCC(=O)N[C@@H](CO)C(=O)N[C@@H](CCCCN)C(=O)N[C@H](C(=O)N[C@@H](Cc1ccc(O)cc1)C(N)=O)[C@@H](C)O)C(C)C)[C@@H](C)O [Example 35] (H-K([γGlu-C20 diacid])CNTATCATQRLANFLRHSSPNFGAIPSSTNVGSKTY-NH2; disulfide 2-7; N-terminus assumed) |  | 15.0 | 0.364 | 15.0 | 5.46 | 0.97 | 50.3 | 50.3 | 50.3 | 0.948 | 65.1 | 65.1 | 48.7 | 61.7 | 15.0 | 50.3 | 50.3 | 50.3 | 50.3 | 65.1
3 | CC[C@H](C)[C@H](NC(=O)[C@H](C)NC(=O)CNC(=O)[C@H](Cc1ccccc1)NC(=O)[C@H](CC(N)=O)NC(=O)[C@@H]1CCCN1C(=O)[C@H](CO)NC(=O)[C@H](CO)NC(=O)[C@H](Cc1c[nH]cn1)NC(=O)[C@H](CCCNC(=N)N)NC(=O)[C@H](CC(C)C)NC(=O)[C@H](Cc1ccccc1)NC(=O)[C@H](CCC(=O)O)NC(=O)[C@H](C)NC(=O)[C@H](CC(C)C)NC(=O)[C@H](CCCNC(=N)N)NC(=O)[C@H](CCC(N)=O)NC(=O)[C@@H](NC(=O)[C@H](C)NC(=O)[C@@H]1CSSC[C@H](NC(=O)[C@H](CCCCN)NC(=O)CC[C@H](NC(=O)CCCCCCCCCCCCCCCCCCC(=O)O)C(=O)O)C(=O)N[C@@H](CC(N)=O)C(=O)N[C@@H]([C@@H](C)O)C(=O)N[C@@H](C)C(=O)N[C@@H]([C@@H](C)O)C(=O)N1)[C@@H](C)O)C(=O)N1CCC[C@H]1C(=O)N[C@@H](CO)C(=O)N1CCC[C@H]1C(=O)N[C@H](C(=O)N[C@@H](CC(N)=O)C(=O)N[C@H](C(=O)NCC(=O)N[C@@H](CO)C(=O)N[C@@H](CC(N)=O)C(=O)N[C@H](C(=O)N[C@@H](Cc1ccc(O)cc1)C(N)=O)[C@@H](C)O)C(C)C)[C@@H](C)O [Example 37] ({C20 diacid-γGlu}-KCNTATCATQRLAEFLRHSSPNFGAIPSPTNVGSNTY-NH2; disulfide 2-7 (inferred)) | 4.0 | 4.0 | 0.092 | 4.0 | 0.372 | 0.97 | 2.3 | 2.3 | 2.3 | 0.514 | 14.3 | 14.3 | 2.18 | 7.35 | 4.0 |  |  |  |  | 

— US9023789B2, “Amylin analogs and pharmaceutical compositions thereof” (Novo Nordisk A/S, priority 2012, dated 2015)
